Assay results: patent publication US20210077382A1, “COMPOSITIONS, DEVICES, AND METHODS FOR THE TREATMENT OF OPIOID-RECEPTOR-MEDIATED CONDITIONS” (Opiant Phamaceuticals, Inc., priority 2016, published 2021)

How the values were obtained:
[1] = same conditions as naltrexone; cited from earlier work
[2] = intranasal formulation with […] Intravail; cited from earlier work
[3] = Safety assessments (adverse events, vital signs, ECG, nasal irritation) in the clinical study; assay type: in vivo, human
Experimental: On dosing days, the order of assessments was ECG, vital signs, then PK blood collection when scheduled at the same nominal times. The target time of the PK blood collection was considered the most critical and if the collection was more than ±1 minute from the scheduled time for the first 60 minutes of collections or more than ±5 minutes for the scheduled time points thereafter, this was considered a protocol deviation. ECG and vital signs were collected within the 10-minute period before the nominal time of blood collections. At screening, admission, and discharge, ECG, and vital signs were checked once per day. […] Clinical laboratory measurements were repeated after the last PK blood draw prior to clinic discharge. AEs were assessed by spontaneous reports by subjects, by examination of the nasal mucosa, by measuring vital signs, ECG, and clinical laboratory parameters.
Safety Assessments. […] ECG and vital signs were performed within the 10-minute period before the nominal time for post-dose blood collections. Adverse events (AEs) were recorded from the start of study drug administration until clinic discharge.

[4] = Clinical pharmacokinetic crossover study of IN, IM and oral naltrexone; plasma naltrexone and 6β-naltrexol by LC-MS/MS; settings: 4 mg IN; 5 minutes postdose
From the text: Study Goals. […] Secondary endpoints included adverse events (AEs), vital signs (heart rate, sitting blood pressure, and respiration rate), electrocardiogram (ECG), clinical laboratory changes and nasal irritation using the nasal irritation scale.
Study design. […] This was an in-patient open-label, crossover study involving approximately 14 healthy volunteers. […] Subjects stayed in the in-patient facility for 13 days to complete the entire study. Subjects were called 3 to 5 days after discharge to inquire concerning AEs and concomitant medications since discharge. Informed consent was obtained from all subjects, and all were screened for eligibility to participate in the study, including medical history, physical examination, clinical chemistry, coagulation markers, hematology, infectious disease serology, urinalysis, urine drug and alcohol toxicology screen, vital signs and ECG.
On days of study drug administration, a 12-lead ECG was performed approximately 1 hour prior to dosing and at approximately 1 and 4 hours post-dose. Vital signs were measured pre-dose and about 1 and 4 hours post-dose.
Study Drugs and Dosing. […] The IN (40 mg/mL) formulations were made by the staff pharmacist at Vince & Associates; the vehicle for the IN formulations was sterile water for injection. The IM formulation (2 mg/mL) was made by the staff pharmacist at Vince & Associates; the vehicle was sterile saline for injection.
Subjects stayed in the in-patient facility for 13 days to complete the entire study and were discharged 2 days after the fourth dose.
PK Assessments. […] Plasma was separated from whole blood and stored frozen at […] until assayed.
Analysis. […] Dose-adjusted values for AUCs and Cmax were calculated. The relative extent of IN and PO absorption (IN and PO versus IM) will be estimated from the dose-corrected AUCs.

[5] = reported to be as low as; Gonzalez and Brogden 1988; cited from earlier work

SMILES: C=C1CC[C@@]2(O)[C@H]3Cc4ccc(O)c5c4[C@@]2(CCN3CC2CC2)[C@H]1O5 [nalmefene, 17-cyclopropylmethyl-4,5α-epoxy-6-methylenemorphinan-3,14-diol]
- Change of AUC when an alkylsaccharide is added to the intranasal formulation [1]: do not have increased AUC

SMILES: CNS(=O)(=O)Cc1ccc2[nH]cc(CCN(C)C)c2c1 [sumatriptan]
- Increase of maximum plasma concentration in comparison to Imitrex nasal spray [2]: almost four-fold
- Increase of total exposure (AUC) [2]: 32%
- Tmax [2]: 8 to 10 min

SMILES: O=C1CC[C@@]2(O)[C@H]3Cc4ccc(O)c5c4[C@@]2(CCN3CC2CC2)[C@H]1O5 [naltrexone, 17-(cyclopropylmethyl)-4,5a-epoxy-3,14-dihydroxymorphinan-6-one]
- Subjects with dizziness (most frequent AE regardless of severity or attribution) ([3]; 5 subjects of 14): 36%
- Subjects with AEs of the Nervous System Disorders SOC (most frequent AEs) ([3]; 7 subjects of 14): 50%
- Severe AEs ([3]; all dosing periods): No severe AEs were observed
- Moderate AEs ([3]; dizziness after the first dose (4 mg IN), considered related to the study agent): one
- Subjects discontinued from the study due to AEs ([3]; hypertension, syncope, out-of-range pre-dose vital signs): Three
- Treatment-related unexpected AE ([3]; mild syncope after the Day 1 dose (4 mg IN)): one
- Subjects who experienced at least one AE ([3]; safety population, 10 of 14 subjects, any dosing period, any relationship to drug): 71%
- Subjects who experienced unexpected AEs ([3]; two UAEs considered unrelated to the study agent): Three
- Difference of mean naltrexone concentrations with and without Intravail [4]: 8 fold
- Oral bioavailability [5]: 5%
